pIC50: −log10 of the molar value. Like-named read-outs stand apart in the source and are kept apart here.
Tests used:
[1] = system: Experimental Autoimmune Encephalomyelitis (EAE); test: Acute stage Experimental Autoimmune Encephalomyelitis (EAE) model, daily dosing
Protocol: Accordingly, three randomized cohorts of guinea pigs with EAE induced by the method of Example 2, were treated, respectively, with 6 mg/kg of Symadex™ (full salt hydrate) and 0.35 mg/kg of mitoxantrone. Animals were treated daily, by intraperitoneal injection, for 15 days, starting on day 7 post immunization. Controls were treated with vehicle. We reasoned that 15 consecutive, 6 mg/kg doses of Symadex™ would represent a level of drug exposure that would be commensurate with the “20 mg/kg every 72 hours” regimen in Example 4 and consistent with a mid level exposure between the 20 mg/kg and the 40 mg/kg schedule given weekly, in Example 2. The mitoxantrone dose was selected to reflect a typical high dose given to rats or mice by daily dosing in the prior art, but allometrically scaled to the guinea pig.

[2] = system: arthritis induced by monoclonal antibodies raised against type II collagen, plus LPS; test: Collagen monoclonal antibody (mABs) + LPS induced arthritis, hind paw volume; assay type: in vivo, BALB/c strain mice; conditions: for inhibition of increase in hind paw volume: 30 mg/kg orally x3
Protocol: Groups of 3 BALB/c strain mice, 6-7 weeks of age, were used for the induction of arthritis by monoclonal antibodies (mABs) raised against type II collagen, plus lipopolysaccharide (LPS). A combination of 4 different mABs (D8, F10, DI-2G and A2) totaling 4 mg/mouse was administered to the animal intravenously on day 0, followed by intravenous challenge with […] of LPS 72 hours later (day 3). From day 3, test substance and vehicle were each administered orally once daily for 3 consecutive days. For each animal, volumes of both hind paws were measured using a plethysmometer with water cell (12 mm diameter) on Days 0, 5, 7, 10, 14 and 17.
C0 (Cn): volume of day 0 (day n) in vehicle control
T0 (Tn): volume of day 0 (day n) in test compound-treated group
Reduction of edema in the hind paws by 30% or more is considered significant.

IL-10 = test: Mediator release, IL-10 (Con A-stimulated PBML, sandwich ELISA); assay type: cell-based; conditions: Homo sapiens
Protocol: In this experiment, test compound and/or vehicle were preincubated with human peripheral blood mononuclear leukocyte (PBML, 1×10^6/ml) in RPMI buffer pH 7.4 for 2 hours. Concanavalin A (Con A, 20 μg/ml) was then added to stimulate the cells overnight in 5% CO2 at 37° C. IL-4 and IL-10 cytokine levels in the conditioned medium were then quantified using a sandwich ELISA kit. Compounds were screened at 10, 1, 0.1, 0.01 and 0.001 μM.

[3] = system: Experimental Autoimmune Encephalomyelitis (EAE); conditions: for mean clinical severity score: 20 mg/kg i.p. once a week
[4] = system: B-lymphocyte cells isolated from the spleen; test: Cell proliferation, B-Cell + LPS ([3H]thymidine incorporation); assay type: cell-based, balb/c mice; conditions: Mus musculus
Protocol: B-lymphocyte cells isolated from the spleen of balb/c mice weighing 17±1 g were used. Test compound and/or vehicle were incubated with the cells (1.5×10^6/ml) in the presence of 10 μg/ml lipopolysaccharide (LPS) in AIM-V medium pH 7.4 at 37° C. for 24 hours. [^3H]Thymidine (120 nM) was then added for an additional overnight incubation period. Thymidine incorporation was assessed by liquid scintillation counting.
(§1) Test compound-induced suppression of cell proliferation by 50 percent or more (≧50%) relative to vehicle control response indicates significant inhibitory activity.

[5] = system: T-lymphocyte cells isolated from thymus; test: Cell proliferation, T-Cell + Con A ([3H]thymidine incorporation); assay type: cell-based, balb/c mice; conditions: Mus musculus
Protocol: T-lymphocyte cells isolated from thymus of balb/c mice weighing 17±1 g were used. Test compound and/or vehicle is incubated with the cells (4×10^6/ml) in the presence of 3 μg/mL Concanavalin A (Con A) in AIM-V medium pH 7.4 at 37° C. for 24 hours. [^3H]Thymidine (120 nM) was then added for an additional overnight incubation period. Thymidine incorporation was assessed by liquid scintillation counting. Compounds were screened at 10, 1, 0.1, 0.01 and 0.001 μM.
as §1

[6] = 20 mg/kg i.p. weekly for 4, 6 and 8 weeks

CCN(CC)CCNc1ccc2ncn3c4ccc(O)cc4c(=O)c1c23 [Symadex™]
clinical score course (neurological impairment) ([1]; daily i.p. for 15 days from day 7 post immunization, Symadex 6 mg/kg, mitoxantrone 0.35 mg/kg): initial rise in neurological impairment is arrested
statistical significance of therapeutic effect on clinical score vs control (Mann-Whitney rank-sum) ([1]; daily i.p. for 15 days, Symadex 6 mg/kg (p below 0.05), mitoxantrone 0.35 mg/kg): reaches statistical significance
pathology scores: perivascular cuffing (P), myelitis (E) and demyelination (D) vs control ([1]; necropsy after 15 daily doses, p value<0.05 from control): reducing the perivascular cuffing (P), myelitis (E) and demyelination (D)
increase in hind paw volume ([2]; day 5, 3 consecutive daily oral doses at 30 mg/kg from day 3, vehicle 42%): 32%
inhibition of increase in hind paw volume ([2]; day 10): 61%
increase in hind paw volume ([2]; day 10, 3 consecutive daily oral doses at 30 mg/kg, vehicle 75%): 29%
inhibition of increase in hind paw volume ([2]; day 14): 74%
increase in hind paw volume ([2]; day 14, 3 consecutive daily oral doses at 30 mg/kg, vehicle 70%): 18%
inhibition of increase in hind paw volume ([2]; day 17): 59%
increase in hind paw volume ([2]; day 17, 3 consecutive daily oral doses at 30 mg/kg, vehicle 47%): 19%
inhibition at 0.001 µM (IL-10; read-out: % inhibition of IL-10 release, 1 nM, read-out: % Growth Inhibition): 1%
inhibition at 0.01 µM (IL-10; read-out: % inhibition of IL-10 release, 10 nM, read-out: % Growth Inhibition): 16%
inhibition at 0.1 µM (IL-10; read-out: % inhibition of IL-10 release, 0.1 μM, read-out: % Growth Inhibition): 16%
inhibition at 1 µM (IL-10; read-out: % inhibition of IL-10 release, 1 μM, read-out: % Growth Inhibition): 39%
inhibition at 10 µM (IL-10; read-out: % inhibition of IL-10 release, 10 μM, read-out: % Growth Inhibition): 99%
pIC50 (IL-10; IL-10 release): 5.92
mean clinical severity score ([3]; 4-week treatment cycle (n=14), starting mean 1.3, p 0.0001 vs control): 0.7
mean clinical severity score ([3]; 6 week treatment (n=3), control 1.3, p 0.009): 0.3
B-cell counts vs controls [3, 6]: no significant deviation from controls
CD4 and CD8 T-cell populations [3, 6]: Neither are CD4 or CD8 T-cell populations modulated
total T-cell counts vs vehicle control [3, 6]: no difference
disease course after drug withdrawal ([3]; 20 mg/kg i.p. weekly for 4 weeks, then 4 weeks vehicle, p 0.002 vs control): remained in stable disease
clinical scores / disease progression ([3]; 20 mg/kg i.p., 2 doses 72 hours apart, from 30 days post immunization (n=3), p 0.002 vs control): reversed the progression of disease and restored baseline clinical scores
clinical scores at end of treatment course ([3]; 20 mg/kg i.p., 8 consecutive weekly doses (n=3), p 0.0006 vs control): converges on baseline
time to clinical recovery from the start of treatment ([3]; 40 mg/kg i.p. once a week for 4 weeks): ≤ 2 weeks
clinical progress and pathological findings vs vehicle control ([3]; 20 and 40 mg/kg i.p. once a week for 4 weeks from day 40, p 0.004 (20 mg/kg), 0.001 (40 mg/kg)): profound and substantial change
inflammatory cells in chronic demyelinated plaques ([3]; after prolonged treatment): virtually no remaining inflammatory cells
endogenous remyelination ([3]; chronic-progressive model, after disease progression): effective in permitting endogenous remyelination
scores for meningeal inflammation and perivascular infiltration ([3]; treated groups vs vehicle controls, weekly dosing for 4 weeks): more severe in the treated groups than in vehicle controls
pIC50 [4]: 7.42
inhibition at 0.001 µM ([4]; read-out: % Growth Inhibition): 0%
inhibition at 0.01 µM ([4]; read-out: % Growth Inhibition): 38%
inhibition at 0.1 µM ([4]; read-out: % Growth Inhibition): 80%
inhibition at 1 µM ([4]; read-out: % Growth Inhibition): 101%
inhibition at 10 µM ([4]; read-out: % Growth Inhibition): 103%
pIC50 [5]: 7.85
inhibition at 0.001 µM ([5]; read-out: % Growth Inhibition): 10%
inhibition at 0.01 µM ([5]; read-out: % Growth Inhibition): 44%
inhibition at 0.1 µM ([5]; read-out: % Growth Inhibition): 82%
inhibition at 1 µM ([5]; read-out: % Growth Inhibition): 103%
inhibition at 10 µM ([5]; read-out: % Growth Inhibition): 104%
